These results are taken from PMC10977697 (PLOS ONE, 2024).

Like-named read-outs stand apart in the source and are kept apart here. Where a SMILES comes first, the peptide text is derived from it. Bridges are numbered along the chain shown (N, C = ends). Where no end group is shown, it is not given here.

In assay [1] the target is T1, HtrA1 FL (Homo sapiens, UniProt Q92743).
T1 construct: HtrA1 (Q23-P480, 5654, Tni Baculovirus); made in house; host or cells: Trichoplusia ni (Tni) cells, baculovirus
It is filed as binding. The conditions noted are these: read-out: Kd(μM) SPR.

Assay [2] relates to HtrA1. Type of assay: binding, human. Conditions: ratio of signal for target protein over BSA background.
Assay [3] deals with Notch2Long. The experiment in a line: Spot phage ELISA, Notch2Long. Type of assay: binding, human. Conditions: for ELISA: spot phage ELISA signal.
The target in assay [4] is T2, Notch2Long (Notch2 EGF6-EGF12) (Homo sapiens, UniProt Q04721).
T2 construct: Biotinylated N2L protein (D219–E418, made in-house); His tag (cleaved yes); made in house; host or cells: CHO
T2 sequence (Q04721 219-418): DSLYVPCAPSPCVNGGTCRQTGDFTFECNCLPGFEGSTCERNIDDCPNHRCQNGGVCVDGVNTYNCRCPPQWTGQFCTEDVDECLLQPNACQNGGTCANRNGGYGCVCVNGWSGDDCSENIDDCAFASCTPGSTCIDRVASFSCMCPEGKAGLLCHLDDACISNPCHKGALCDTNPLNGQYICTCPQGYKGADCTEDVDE
The experiment in a line: SPR binding of synthetic DCPs to Notch2Long. The conditions noted are these: Biacore S200, 25°C, 50 μL/min; synthetic in vitro folded peptide, 3-fold dilution from 100 μM; biotinylated N2L on chip SA; steady state fitting; at least three independent experiments; n/d = no binding. As for the experimental part: All binding experiments were performed using a Biacore S200 instrument (GE Healthcare) at 25°C at a flow rate of 50 μL/min. The kinetics and affinity measurements were carried out using either single-cycle or multi-cycle kinetics (SCK or MCK), solvent corrected and referenced by subtracting the signal to the blank flow cell. Binding affinity and kinetic parameters (association and dissociation rate constants, and dissociation equilibrium constant) were calculated with the Biacore S200 Evaluation Software (version 1.1.1, Cytiva) using either a 1:1 binding model or a steady-state equilibrium model (according to the manufacturer’s instructions).
Biotinylated N2L protein (D219–E418, made in-house) and NRR protein (A1423–Q1677, made in-house) were captured at around 500, 1000 and 1500 RU on Sensor Chip SA (Cytiva).

Assay [5] deals with R-spondin. The experiment in a line: Spot phage ELISA, R-spondin. The conditions noted are these: for S/N: ratio of signal for target protein over BSA background; for ELISA: spot phage ELISA signal, DCP displayed on M13 p8. Type of assay: binding, human.
Assay [6] deals with trypsin. The experiment in a line: Phage ELISA of displayed DCPs on immobilized trypsin. The conditions noted are these: DCP displayed on M13 p3 or p8, phage ELISA on trypsin-coated plates (Fig 1).
Procedure: The DCPs, incorporating an N-terminal gD-tag for quantification of display levels, were fused at the C-terminal to the major M13 coat protein p8 or the C-terminal domain of minor coat protein p3 (Fig 1A).
The display level was analyzed using phage ELISA described previously [47].

T1 sequence (Q92743 23-480): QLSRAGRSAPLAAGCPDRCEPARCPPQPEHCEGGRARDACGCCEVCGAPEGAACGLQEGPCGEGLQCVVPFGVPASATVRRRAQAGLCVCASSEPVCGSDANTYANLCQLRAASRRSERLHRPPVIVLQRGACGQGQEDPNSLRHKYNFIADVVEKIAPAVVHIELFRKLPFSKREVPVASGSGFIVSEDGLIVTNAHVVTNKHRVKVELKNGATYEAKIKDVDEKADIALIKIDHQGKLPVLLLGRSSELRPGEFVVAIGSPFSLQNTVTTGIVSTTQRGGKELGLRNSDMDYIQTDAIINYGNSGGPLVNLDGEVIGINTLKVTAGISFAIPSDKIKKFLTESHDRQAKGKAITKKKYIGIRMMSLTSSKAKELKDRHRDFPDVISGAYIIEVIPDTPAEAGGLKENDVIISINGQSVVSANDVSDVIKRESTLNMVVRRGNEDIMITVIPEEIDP

As for `CC[C@H](C)[C@@H]1NC(=O)[C@H](Cc2ccccc2)NC(=O)[C@H](Cc2ccc(O)cc2)NC(=O)[C@H](C(C)C)NC(=O)[C@H](CCSC)NC(=O)[C@H](C(C)C)NC(=O)[C@@H]2CSSC[C@H](NC(=O)[C@H](CC(=O)O)NC(=O)[C@H](Cc3ccccc3)NC(=O)[C@H](C)N)C(=O)N[C@@H](CC(C)C)C(=O)NCC(=O)N[C@@H](CCC(N)=O)C(=O)N[C@H]3CSSC[C@H](NC(=O)[C@H](Cc4ccc(O)cc4)NC(=O)[C@@H]4CCCN4C(=O)[C@H](CCCCN)NC(=O)[C@H]([C@@H](C)O)NC(=O)[C@H](CCSC)NC(=O)[C@H](Cc4c[nH]cn4)NC1=O)C(=O)N[C@@H](CC(N)=O)C(=O)N[C@@H](CO)C(=O)N[C@@H](CO)C(=O)N[C@H](C(=O)N[C@H](C(=O)N[C@@H](CCCNC(=N)N)C(=O)O)[C@@H](C)O)CSSC[C@H](NC(=O)[C@H](CCCNC(=N)N)NC(=O)CNC3=O)C(=O)N[C@@H](CC(=O)O)C(=O)N[C@@H](Cc1ccccc1)C(=O)N[C@@H](Cc1c[nH]cn1)C(=O)N[C@@H](CCCCN)C(=O)N[C@@H](CC(C)C)C(=O)N[C@@H](CCC(N)=O)C(=O)N2` [HtrA1_AVR61] (HELM PEPTIDE1{A.F.D.C.L.G.Q.C.G.R.C.D.F.H.K.L.Q.C.V.M.V.Y.F.I.H.M.T.K.P.Y.C.N.S.S.C.T.R}$PEPTIDE1,PEPTIDE1,4:R3-18:R3|PEPTIDE1,PEPTIDE1,8:R3-31:R3|PEPTIDE1,PEPTIDE1,11:R3-35:R3$$$V2.0; N-terminus and C-terminus assumed), the Kd in assay [1] (Biacore S200, 25°C, biotinylated HtrA1 FL on chip SA, 10 mM HEPES (8.0), 200mM NaCl, 0.25% CHAPS, 5% DMSO, steady state fitting, n/d = no binding) is above 20 µM. Also, the S/N in assay [2] came to 24.4. With `CC[C@H](C)[C@@H]1NC(=O)[C@@H]2CCCN2C(=O)[C@H](CCC(=O)O)NC(=O)[C@@H]2CSSC[C@@H]3NC(=O)[C@H](Cc4c[nH]cn4)NC(=O)[C@H](Cc4c[nH]c5ccccc45)NC(=O)[C@H](CC(C)C)NC(=O)[C@H]([C@@H](C)O)NC(=O)[C@H](Cc4c[nH]c5ccccc45)NC(=O)CNC(=O)[C@@H](NC(=O)CN)CSSC[C@H](NC(=O)CNC(=O)[C@H](C)NC(=O)[C@H](CC(C)C)NC(=O)[C@H](CSSC[C@@H](C(=O)NCC(=O)O)NC(=O)[C@H](Cc4c[nH]c5ccccc45)NC(=O)[C@H](Cc4c[nH]c5ccccc45)NC1=O)NC(=O)[C@H](CC(=O)O)NC(=O)[C@H](CO)NC(=O)[C@H](CC(=O)O)NC(=O)[C@H](CCC(N)=O)NC(=O)[C@H](CCCCN)NC3=O)C(=O)N[C@@H](C(C)C)C(=O)N2` [N2L-EET-03] (HELM PEPTIDE1{G.C.G.W.T.L.W.H.C.K.Q.D.S.D.C.L.A.G.C.V.C.E.P.I.W.W.C.G}$PEPTIDE1,PEPTIDE1,2:R3-19:R3|PEPTIDE1,PEPTIDE1,9:R3-21:R3|PEPTIDE1,PEPTIDE1,15:R3-27:R3$$$V2.0; N-terminus and C-terminus assumed), the “s/n ratio” value in assay [3] (Table 3, affinity maturation clones, signal over BSA background) is reported as 3.1. Moreover, the ELISA in assay [3] (Table 3, affinity maturation clones, display (p8 or p3) not given per clone) is recorded as 0.4; in assay [3] (initial hits, DCP displayed on M13 p8), 0.35. Moreover, in assay [3] (initial hits, ratio of signal for target protein over BSA background), the S/N was 3.1. Consider `CC[C@H](C)[C@@H]1NC(=O)[C@@H](NC(=O)CN)CSSC[C@@H]2NC(=O)CNC(=O)[C@H](C)NC(=O)[C@H](CCC(=O)O)NC(=O)[C@@H]3CSSC[C@@H](C(=O)NCC(=O)O)NC(=O)[C@H](CCC(N)=O)NC(=O)[C@H]([C@@H](C)CC)NC(=O)[C@H](Cc4c[nH]c5ccccc45)NC(=O)[C@H](C(C)C)NC(=O)[C@H](CCC(=O)O)NC(=O)[C@H](CSSC[C@H](NC(=O)[C@H](Cc4c[nH]c5ccccc45)NC(=O)[C@H](CC(C)C)NC(=O)[C@H](Cc4c[nH]cn4)NC(=O)[C@H](CO)NC(=O)[C@H](CCCCN)NC1=O)C(=O)N1CCC[C@H]1C(=O)N[C@@H](CCCCN)C(=O)N[C@@H]([C@@H](C)O)C(=O)N[C@@H](CO)C(=O)N[C@@H](CC(=O)O)C(=O)N3)NC(=O)[C@H]([C@@H](C)CC)NC2=O` [N2L.EET31.43.24] (HELM PEPTIDE1{G.C.I.K.S.H.L.W.C.P.K.T.S.D.C.E.A.G.C.I.C.E.V.W.I.Q.C.G}$PEPTIDE1,PEPTIDE1,2:R3-19:R3|PEPTIDE1,PEPTIDE1,9:R3-21:R3|PEPTIDE1,PEPTIDE1,15:R3-27:R3$$$V2.0), for which the dissociation constant (Kd) in assay [4] was 3.5 µM. Same read-out and setting: in the case of `CC[C@H](C)[C@@H]1NC(=O)[C@@H](NC(=O)CN)CSSC[C@@H]2NC(=O)CNC(=O)[C@H](C)NC(=O)[C@H](CCC(=O)O)NC(=O)[C@@H]3CSSC[C@@H](C(=O)NCC(=O)O)NC(=O)[C@H](CCC(N)=O)NC(=O)[C@H]([C@@H](C)CC)NC(=O)[C@H](Cc4c[nH]c5ccccc45)NC(=O)[C@H]([C@@H](C)CC)NC(=O)[C@H](CCC(=O)O)NC(=O)[C@H](CSSC[C@H](NC(=O)[C@H](Cc4c[nH]c5ccccc45)NC(=O)[C@H](C(C)C)NC(=O)[C@H](Cc4c[nH]cn4)NC(=O)[C@H](CO)NC(=O)[C@H](CCCNC(=N)N)NC1=O)C(=O)N[C@@H](CCCCN)C(=O)N[C@@H](CCC(N)=O)C(=O)N[C@@H](CC(=O)O)C(=O)N[C@@H](CO)C(=O)N[C@@H](CC(=O)O)C(=O)N3)NC(=O)[C@H]([C@@H](C)CC)NC2=O` [N2L.EET31.43.43] (HELM PEPTIDE1{G.C.I.R.S.H.V.W.C.K.Q.D.S.D.C.E.A.G.C.I.C.E.I.W.I.Q.C.G}$PEPTIDE1,PEPTIDE1,2:R3-19:R3|PEPTIDE1,PEPTIDE1,9:R3-21:R3|PEPTIDE1,PEPTIDE1,15:R3-27:R3$$$V2.0) it was 3.5 µM. Consider “GCDPWIWQEWGVCKQDSDCLAGCVCGPNGFCG (also: bicyclic or more (positions not given here)) [R-spondin EETI-II 47]”, for which, in assay [5], the S/N amounted to 13.7 and the ELISA worked out at 1.06. For “GCLASHPWWSVWCKQDSDCLAGCVCQEMGICG (also: bicyclic or more (positions not given here)) [R-spondin EETI-II 31]”, in that order: 11.4 and 0.72. As to “GCPRILKRCKRDSDCLAGCVCRGNGFCG (also: bicyclic or more (positions not given here)) [EETI-mut]”, the “phage binding to immobilized trypsin” value in assay [6] was “significantly disrupted”.

In the case of “GLPVCGETCVGGTCNTPGCTCSWPVCTRN (also: bicyclic or more (positions not given here)) [kalata B1]”, the “phage binding to immobilized trypsin” value in assay [6] is reported as “did not exhibit any binding signal”.

For “GPTQSFWGWCGGIGYVGGRYCSGTTCQRPDAHWSQCLPGAS (disulfide 10-26, 21-36 (inferred)) [HtrA1_CBDamy86]”, the Kd in assay [1] stood at 158 µM. Moreover, the S/N in assay [2] is recorded as 22.8.

In the case of “SGSDGGVCPKILKKCRRDSDCPGACICRGNGYCG (also: bicyclic or more (positions not given here)) [MCoTI-II]”, the “phage binding to immobilized trypsin” value in assay [6] is “showed binding signals”.
